Earlier results, collected in doi:10.1101/2024.08.20.608791v1 (bioRxiv, 2024).

How the values were obtained:
[1] = <LOQ
[2] = for in vitro permeability, not able to quantify: not able to quantify in an in vitro permeability assay (≤LOQ); for in vitro permeability (in words): assay not specified
[3] = as reported in Table 1 and text; source and method not stated
[4] = for observed F: oral bioavailability, not marked as animal data, source not stated per compound
[5] = humans; for estimated / proposed fa: oral, compounds without fa values in man, estimate or proposal only

bivalirudin
solubility in water (in words) [1]: practically insoluble in water

CO/N=C(\C(=O)N[C@@H]1C(=O)N2C(C(=O)O)=C(CSc3nc(C)c(CC(=O)O)s3)CS[C@H]12)c1csc(N)n1 [Cefodizime]
in vitro permeability, not able to quantify [2]: ≤ LOQ

voclosporin
solubility in water (in words) [1]: practically insoluble in water

Vancomycin
in vitro permeability, not able to quantify [2]: ≤ LOQ

CO[C@H]1/C=C/O[C@@]2(C)Oc3c(C)c(O)c4c(O)c(c5c(nc6cc(C)ccn65)c4c3C2=O)NC(=O)/C(C)=C\C=C\[C@H](C)[C@H](O)[C@@H](C)[C@@H](O)[C@@H](C)[C@H](OC(C)=O)[C@@H]1C [rifaximin]
solubility in water (in words) [1]: practically insoluble in water

CC(C)[C@@H](C)[C@@]1(C)CC[C@]2(C)[C@H]3CC[C@@H]4[C@@]5(COC[C@@]4(C)[C@@H](OC[C@](C)(N)C(C)(C)C)[C@H](n4ncnc4-c4ccncc4)C5)C3=CC[C@@]2(C)[C@@H]1C(=O)O [Ibrexafungerp]
log P [3]: 5.8

CCc1c(Cl)c(O)c(Cl)c(O)c1C(=O)O[C@H]1[C@H](O)[C@H](OC)[C@H](OC/C2=C\C=C\C[C@H](O)/C(C)=C/[C@H](CC)[C@@H](O[C@@H]3OC(C)(C)[C@@H](OC(=O)C(C)C)[C@H](O)[C@@H]3O)/C(C)=C/C(C)=C/C[C@@H]([C@@H](C)O)OC2=O)O[C@@H]1C [Fidaxomicin]
log P [3]: 6.4

desmopressin
observed F [4]: 0.08-0.16%

CN1Cc2c(Cl)cc(Cl)cc2[C@H](c2cccc(S(=O)(=O)NCCOCCOCCNC(=O)NCCCCNC(=O)NCCOCCOCCNS(=O)(=O)c3cccc([C@@H]4CN(C)Cc5c(Cl)cc(Cl)cc54)c3)c2)C1 [Tenapanor]
log P [3]: 4.8

CC1(C)CC[C@]2(NC(=O)C(C)(F)F)CC[C@]3(C)[C@H](C(=O)C=C4[C@@]5(C)C=C(C#N)C(=O)C(C)(C)[C@@H]5CC[C@]43C)[C@@H]2C1 [omaveloxolone]
observed F [4]: 8%

CC[C@H]1OC(=O)[C@H](C)C(=O)[C@H](C)[C@@H](O[C@@H]2O[C@H](C)C[C@H](N(C)C)[C@H]2O)[C@](C)(OC/C=C/c2cnc3ccccc3c2)C[C@@H](C)C(=O)[C@H](C)[C@H]2NC(=O)O[C@@]21C [Cethromycin]
log P [3]: 5.4

CO/N=C(\C(=O)N[C@@H]1C(=O)N2C(C(=O)O)=C(CSc3nc(=O)c(=O)[nH]n3C)CS[C@H]12)c1csc(N)n1 [Ceftriaxone]
in vitro permeability, not able to quantify [2]: ≤ LOQ

Teicoplanin A2 1
log P [3]: -2.3

dalbavancin
in vitro permeability, not able to quantify [2]: ≤ LOQ

COC(=O)N[C@H](C(=O)N1CCC[C@H]1c1nc(-c2ccc(-c3ccc(-c4c[nH]c([C@@H]5CCCN5C(=O)[C@@H](NC(=O)OC)C(C)C)n4)cc3)cc2)c[nH]1)C(C)C [Daclatasvir]
log P [3]: 5.1

COc1cc(F)c(C(C)C)cc1-c1ccc(C(F)(F)F)cc1CN1C(=O)O[C@H](c2cc(C(F)(F)F)cc(C(F)(F)F)c2)[C@@H]1C [anacetrapib]
log P [3]: 9.3

C=CC[C@@H]1/C=C(\C)C[C@H](C)C[C@H](OC)[C@H]2O[C@@](O)(C(=O)C(=O)N3CCCC[C@H]3C(=O)O[C@H](/C(C)=C/[C@@H]3CC[C@@H](O)[C@H](OC)C3)[C@H](C)[C@@H](O)CC1=O)[C@H](C)C[C@@H]2OC [tacrolimus]
estimated / proposed fa [5]: > 15%

cholecystokinin octapeptide
observed F [4]: 0.2%

anidulafungin
solubility in water (in words) [1]: practically insoluble in water
F ([4]; species not stated, quoted as comparison for micafungin): 2-7%

octreotide
in vitro permeability, not able to quantify [2]: ≤ LOQ

quinupristin
solubility in water (in words) [1]: practically insoluble in water

CO[C@H]1C[C@@H]2CC[C@@H](C)[C@@](O)(O2)C(=O)C(=O)N2CCCC[C@H]2C(=O)O[C@H]([C@H](C)C[C@@H]2CC[C@@H](OP(C)(C)=O)[C@H](OC)C2)CC(=O)[C@H](C)/C=C(\C)[C@@H](O)[C@@H](OC)C(=O)[C@H](C)C[C@H](C)/C=C/C=C/C=C/1C [ridaforolimus]
solubility in water (in words) [1]: practically insoluble in water

CO[C@H]1C[C@H](O[C@H]2CC[C@]3(C=O)[C@H]4CC[C@]5(C)[C@@H](C6=CC(=O)OC6)CC[C@]5(O)[C@@H]4CC[C@]3(O)C2)O[C@H](C)[C@H]1O[C@@H]1O[C@H](CO[C@@H]2O[C@H](CO)[C@@H](O)[C@H](O)[C@H]2O)[C@@H](O)[C@H](O)[C@H]1O [k-strophanthoside]
fraction absorbed (fa) of approved oral drugs [5]: 16%

CC(=O)O[C@H]1C(=O)[C@@]2(C)[C@H]([C@H](OC(=O)c3ccccc3)[C@]3(O)C[C@H](OC(=O)[C@H](O)[C@@H](NC(=O)c4ccccc4)c4ccccc4)C(C)=C1C3(C)C)[C@]1(OC(C)=O)CO[C@@H]1C[C@@H]2O [paclitaxel]
in vitro permeability, not able to quantify [2]: ≤ LOQ

Neomycin
log P [3]: -6.6

NNC(=O)NN1C(=O)c2cc(S(=O)(=O)O)cc3c(N)c(S(=O)(=O)O)cc(c23)C1=O [lucifer yellow CH]
in vitro permeability (in words) [2]: moderate in vitro permeability

terlipressin
in vitro permeability, not able to quantify [2]: ≤ LOQ

CC(C)(C)OC(=O)N[C@H]1CCCCC/C=C\[C@@H]2C[C@@]2(C(=O)NS(=O)(=O)C2CC2)NC(=O)[C@@H]2C[C@@H](OC(=O)N3Cc4cccc(F)c4C3)CN2C1=O [danoprevir]
in vitro permeability, not able to quantify [2]: ≤ LOQ

CO[C@H]1C[C@@H]2CC[C@@H](C)[C@@](O)(O2)C(=O)C(=O)N2CCCC[C@H]2C(=O)O[C@H]([C@H](C)C[C@@H]2CC[C@@H](OCCO)[C@H](OC)C2)CC(=O)[C@H](C)/C=C(\C)[C@@H](O)[C@@H](OC)C(=O)[C@H](C)C[C@H](C)/C=C/C=C/C=C/1C [everolimus]
solubility in water (in words) [1]: practically insoluble in water

CC[C@H]1OC(=O)[C@H](C)[C@@H](O[C@H]2C[C@@](C)(OC)[C@@H](O)[C@H](C)O2)[C@H](C)[C@@H](O[C@@H]2O[C@H](C)C[C@H](N(C)C)[C@H]2O)[C@](C)(O)C[C@@H](C)CN(C)[C@H](C)[C@@H](O)[C@]1(C)O [Azithromycin]
solubility in water (in words) [1]: practically insoluble in water

CC(C)c1nc(CN(C)C(=O)N[C@H](C(=O)N[C@@H](Cc2ccccc2)C[C@H](O)[C@H](Cc2ccccc2)NC(=O)OCc2cncs2)C(C)C)cs1 [Ritonavir]
log P [3]: 5.2

COC(=O)N[C@H](C(=O)N1CCC[C@H]1C(=O)Nc1ccc([C@@H]2CC[C@@H](c3ccc(NC(=O)[C@@H]4CCCN4C(=O)[C@@H](NC(=O)OC)C(C)C)cc3)N2c2ccc(C(C)(C)C)cc2)cc1)C(C)C [Ombitasvir]
in vitro permeability, not able to quantify [2]: ≤ LOQ
log P [3]: 5.7

COC(=O)N[C@H](C(=O)N1CCC[C@H]1c1nc(-c2ccc3c(c2)O[C@@H](c2ccccc2)n2c-3cc3cc(-c4c[nH]c([C@@H]5CCCN5C(=O)[C@@H](NC(=O)OC)C(C)C)n4)ccc32)c[nH]1)C(C)C [elbasvir]
solubility in water (in words) [1]: practically insoluble in water

semaglutide
observed F [4]: 0.8%

CC1(C)CCC(CN2CCN(c3ccc(C(=O)NS(=O)(=O)c4ccc(NCC5CCOCC5)c([N+](=O)[O-])c4)c(Oc4cnc5[nH]ccc5c4)c3)CC2)=C(c2ccc(Cl)cc2)C1 [Venetoclax]
log P [3]: 8.2
solubility in water (in words) [1]: practically insoluble in water
fraction absorbed (fa) of approved oral drugs [5]: > 65%

N#C[C@H](O[C@@H]1O[C@H](CO[C@@H]2O[C@H](CO)[C@@H](O)[C@H](O)[C@H]2O)[C@@H](O)[C@H](O)[C@H]1O)c1ccccc1 [Amygdalin]
in vitro permeability, not able to quantify [2]: ≤ LOQ

C=C1C[C@@]23CC[C@H]4[C@@](C)(CCC[C@@]4(C)C(=O)O[C@@H]4O[C@H](CO)[C@@H](O)[C@H](O)[C@H]4O)[C@@H]2CC[C@]1(O[C@@H]1O[C@H](CO)[C@@H](O)[C@H](O)[C@H]1O[C@@H]1O[C@H](CO)[C@@H](O)[C@H](O)[C@H]1O)C3 [stevioside]
in vitro permeability (in words) [2]: limited permeability

Cc1ccc(C(=O)Nc2ccc(S(=O)(=O)O)c3cc(S(=O)(=O)O)cc(S(=O)(=O)O)c23)cc1NC(=O)c1cccc(NC(=O)Nc2cccc(C(=O)Nc3cc(C(=O)Nc4ccc(S(=O)(=O)O)c5cc(S(=O)(=O)O)cc(S(=O)(=O)O)c45)ccc3C)c2)c1 [suramin]
in vitro permeability, not able to quantify [2]: ≤ LOQ

COC[C@H]1C[C@@H](c2ncc(-c3ccc4c(c3)COc3cc5c(ccc6nc([C@@H]7CC[C@H](C)N7C(=O)[C@@H](NC(=O)OC)C(C)C)[nH]c65)cc3-4)[nH]2)N(C(=O)[C@H](NC(=O)OC)c2ccccc2)C1 [velpatasvir]
solubility in water (in words) [1]: practically insoluble in water
estimated / proposed fa [5]: 25-30%

pasireotide
in vitro permeability (in words) [2]: low in vitro permeability

CC1(C)S[C@@H]2[C@H](NC(=O)[C@H](NC(=O)N3CCN(S(C)(=O)=O)C3=O)c3ccccc3)C(=O)N2[C@H]1C(=O)O [mezlocillin]
estimated / proposed fa [5]: zero

Nc1nc(=O)c2c([nH]1)NCC(CNc1ccc(C(=O)N[C@@H](CCC(=O)O)C(=O)O)cc1)N2C=O (mixture of isomers) [Folinic acid]
in vitro permeability, not able to quantify [2]: ≤ LOQ

CC[C@]1(O)C[C@H]2CN(CCc3c([nH]c4ccccc34)[C@@](C(=O)OC)(c3cc4c(cc3OC)N(C=O)[C@H]3[C@@](O)(C(=O)OC)[C@H](OC(C)=O)[C@]5(CC)C=CCN6CC[C@]43[C@@H]65)C2)C1 [vincristine]
in vitro permeability, not able to quantify [2]: ≤ LOQ
